In patent US9139502B2, “Use of an urushiol compound in preparation of pharmaceutical compositions for inhibiting Smad3 phosphorylation” (Southern Hospital, Southern Medical University, priority 2013, dated 2015):

Assays:
Smad3 phosphorylation [1] = assay: Western blot of TGF-β1-induced Smad3 phosphorylation in vitro; format: cell-based, rat
Procedure: NRK52E and NRK49F cells were cultured in DMEM-Ham's medium supplemented with 10% fetal bovine serum. The cells reached at approximately 50% confluence were used for in vitro experiments. Cells were serum-starved for 12 h, and randomized into 6 groups: (1) Controls; (2) GQ-5 only; (3) TGF-β1 only; (4) TGF-β1+GQ-5 0.1 μM; (5) TGF-β1+GQ-5 0.5 μM; (6) TGF-β1+GQ-5 2.5 μM.
(§1) (2) GQ-5 only: pre-treated with GQ-5 (2.5 μM) for 1 h, followed with DMEM for 1 h
(§2) (3) TGF-β1 only: pre-treated with DMSO (0.1%) for 1 h, followed with TGF-β1 (10 ng/ml) for 1 h
(4) TGF-β1+GQ-5 0.1 μM: pre-treated with GQ-5 (0.1 μM) for 1 h, followed with TGF-β1 (10 ng/ml) for 1 h
(5) TGF-β1+GQ-5 0.5 μM: pre-treated with GQ-5 (0.5 μM) for 1 h, followed with TGF-β1 (10 ng/ml) for 1 h
(6) TGF-β1+GQ-5 2.5 μM: pre-treated with GQ-5 (2.5 μM) for 1 h, followed with TGF-β1 (10 ng/ml) for 1 h.
GQ-5 was dissolved in DMSO. Cells were treated as described. Cell lysates were immunoblotted with antibodies against phospho-Smad3, Smad3, phospho-Smad2, Smad2.
NRK52E cells were cultured in DMEM-Ham's medium supplemented with 10% fetal bovine serum. The cells reached at approximately 50% confluence were used for in vitro experiments. Cells were serum-starved for 12 h, and randomized into 8 groups: (1) Controls; (2) GQ-5 only; (3) TGF-β1 0.5 h; (4) TGF-β1 0.5 h+GQ-5; (5) TGF-β1 1.0 h; (6) TGF-β1 1.0 h+GQ-5; (7) TGF-β1 3.0 h; (8) TGF-β1 3.0 h+GQ-5;
(4) TGF-β1 0.5 h+GQ-5: pre-treated with GQ-5 (2.5 μM) for 1 h, followed with TGF-β1 (10 ng/ml) for 0.5 h
(6) TGF-β1 1.0 h+GQ-5: pre-treated with GQ-5 (2.5 μM) for 1 h, followed with TGF-β1 (10 ng/ml) for 1.0 h
(8) TGF-β1 3.0 h+GQ-5: pre-treated with GQ-5 (2.5 μM) for 1 h, followed with TGF-β1 (10 ng/ml) for 3.0 h
GQ-5 was dissolved in DMSO. Cells were treated as described. Cell lysates were immunoblotted with antibodies against phospho-Smad3, Smad3, phospho-Smad2, and Smad2.

Smad7 = assay: Western blot of Smad7 expression in vitro; format: cell-based, rat; conditions: NRK52E and NRK49F cells, GQ-5 2.5 nM pre-treated 1 h, TGF-β1 10 ng/ml 1 h
Procedure: NRK52E and NRK49F cells were cultured in DMEM-Ham's medium (Gibco, Life Techologies, NY, USA) supplemented with 10% fetal bovine serum (Gibco, Life Techologies, NY, USA). The cells reached at approximately 50% confluence were used for in vitro experiments. Cells were serum-starved for 12 h, and randomized into 4 groups: (1) Controls; (2) GQ-5 only; (3) TGF-β1 only; (4) TGF-β1+GQ-5
as §1, §2
(4) TGF-β1+GQ-5: pre-treated with GQ-5 (2.5 nM) for 1 h, followed with TGF-β1 (10 ng/ml) for 1 h
GQ-5 was dissolved in DMSO. Cells were treated as described. cell lysates were immunoblotted with antibodies against Smad4, Smad7, phospho-p38, p38, phospho-PI3K, PI3K, phosphor-ERK, and ERK.

Smad3 phosphorylation [2] = assay: Smad3 phosphorylation in kidney tissue of UUO rats (immunohistochemistry, Western blot); format: in vivo, rat; conditions: GQ-5 40 mg/kg daily i.p. right after or 7 days after UUO, sacrificed day 14
Procedure: Male Sprague-Dawley rats with body weight 200 to 250 g were randomized into 4 groups (n=6 in each group): (1) sham operated rats; (2) UUO rats; (3) UUO+GQ-5 d1 rats; (4) UUO+GQ-5 d7 rats.
(§3) GQ-5 was dissolved in 5% propylene glycol.
(§4) (3) UUO+GQ-5 d1 rats: daily intraperitoneal injection of GQ-5 (40 mg/kg body weight) right after UUO;
(§5) (4) UUO+GQ-5 d7 rats: daily intraperitoneal injection of GQ-5 (40 mg/kg body weight) 7 days after UUO.
UUO was performed using an established protocol as described. GQ-5 was dissolved in 5% propylene glycol. Rats were administrated with GQ-5 as described before. All the rats were sacrificed 14 days after UUO. Immunohistochemical staining and Western blot analyses were performed to examine the Smad3 and Smad2 phosphorylation in kidney tissue.

UUO rats = assay: Renal interstitial fibrosis after UUO (HE and Masson trichrome staining); format: in vivo, rat; conditions: GQ-5 40 mg/kg daily i.p. initiating right after or 7 days after operation, sacrificed day 14
Procedure: Male Sprague-Dawley rats were randomized into 4 groups (n=6 in each group): (1) sham operated rats; (2) UUO rats; (3) UUO+GQ-5 d1 rats; (4) UUO+GQ-5 d7 rats.
as §3, §4, §5
UUO was performed using an established protocol as described. GQ-5 was dissolved in 5% propylene glycol. Rats were administrated with GQ-5 as described before. All the rats were sacrificed 14 days after UUO. HE staining, Masson trichrome staining were performed to examine the renal tissue injury, and Real-time PCR analyses, immunohistochemical staining, and Western blot analyses were performed to examine α-SMA, collagen I and fibronectin expression in kidney tissue

[3] = target: interaction of Smad3 with TβRI (Rattus norvegicus, UniProt P84025); assay: Immunoprecipitation of Smad3 with TβRI in UUO kidneys; format: in vivo; set-up: from tissue; host or cells: kidney of UUO Sprague-Dawley rats; conditions: GQ-5 40 mg/kg daily i.p. right after UUO, sacrificed day 14
Procedure: Male Sprague-Dawley rats with body weight 200 to 250 g were randomized into 3 groups (n=6 in each group): (1) sham operated rats; (2) UUO rats; (3) UUO+GQ-5 rats.
as §3
(3) UUO+GQ-5 rats: daily intraperitoneal injection of GQ-5 (40 mg/kg body weight) right after UUO;
UUO was performed using an established protocol as described. GQ-5 was dissolved in 5% propylene glycol. Rats were administrated with GQ-5 as described before. All the rats were sacrificed 14 days after UUO. Immunoprecipitation analyses were performed to examine the interaction among TβRI, TβRII, Smad3 and Smad2.

Chain of interaction of Smad3 with TβRI (P84025 whole entry): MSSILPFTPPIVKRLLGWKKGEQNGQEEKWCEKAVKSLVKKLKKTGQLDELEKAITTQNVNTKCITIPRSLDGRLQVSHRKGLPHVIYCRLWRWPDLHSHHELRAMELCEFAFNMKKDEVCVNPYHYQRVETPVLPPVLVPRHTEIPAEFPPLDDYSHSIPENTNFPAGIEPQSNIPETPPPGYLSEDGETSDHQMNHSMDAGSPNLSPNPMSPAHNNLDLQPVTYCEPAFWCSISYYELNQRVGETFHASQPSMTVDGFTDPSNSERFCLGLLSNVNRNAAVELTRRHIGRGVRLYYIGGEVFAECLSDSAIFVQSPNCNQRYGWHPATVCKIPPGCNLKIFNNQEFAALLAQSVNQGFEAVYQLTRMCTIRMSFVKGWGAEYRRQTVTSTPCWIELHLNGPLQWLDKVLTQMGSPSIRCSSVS

CCCCCC/C=C\CCCCCCCc1cccc(O)c1O [GQ-5, 3-[(Z)-pentadec-8-enyl]catechol]
inhibitory effect in the absence of TGF-β1 stimulation (Smad3 phosphorylation [1]; NRK52E and NRK49F cells, GQ-5 2.5 μM only): almost undetectable | TGF-β1-induced Smad3 phosphorylation, dose dependence (Smad3 phosphorylation [1]; NRK52E and NRK49F cells, GQ-5 0.1, 0.5, 2.5 μM pre-treated 1 h, TGF-β1 10 ng/ml 1 h): attenuated TGF-β1-induced Smad3 phosphorylation in a dose-dependent manner | TGF-β1-induced Smad3 phosphorylation, time dependence (Smad3 phosphorylation [1]; NRK52E cells, GQ-5 2.5 μM pre-treated 1 h, TGF-β1 10 ng/ml 0.5, 1.0, 3.0 h): attenuated TGF-β1-induced Smad3 phosphorylation in a time-dependent manner | protein expression of Smad7 (Smad7): did not affect | Smad3 phosphorylation in renal tissue (Smad3 phosphorylation [2]): significantly inhibited | inflammatory cell infiltration (UUO rats): significantly reduced | interstitial fibrosis score (UUO rats): significantly reduced | interaction of Smad3 with TβRI [3]: significantly blocked
